From US20130261077A1 (priority 2012, published 2013) come the findings set out here.

Broadly, the Kd is a measure of binding affinity in units of concentration. Low readings indicate higher affinity, high ones lower affinity.

In this test the target is T1, FimH-CRD (Escherichia coli, UniProt P08191).
T1 construct: The first 177 amino acids of the FimH protein; thrombin tag (printed as 'fusion protein with thrombin') (cleaved yes); made in house; host or cells: bacteria (pET21b plasmid)
T1 sequence (P08191 22-177): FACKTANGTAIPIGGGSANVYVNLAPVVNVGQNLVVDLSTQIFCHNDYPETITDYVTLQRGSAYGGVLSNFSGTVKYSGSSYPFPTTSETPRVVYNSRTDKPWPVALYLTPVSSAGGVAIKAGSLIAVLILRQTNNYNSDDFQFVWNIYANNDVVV
Kind of test: Competitive binding assay by fluorescence polarization, assay 2 (compounds prepared by robotics, plates frozen and thawed). The method, then:
The first 177 amino acids of the FimH protein were expressed as a fusion protein with thrombin in a pET21b plasmid in bacteria. This FimH protein sequence contains the carbohydrate recognition domain (CRD) and shall be termed FimH-CRD. Following bacterial expression of the protein, the FimH-CRD protein was purified to homogeneity and the thrombin tag removed by protease cleavage. A competitive binding assay by fluorescence polarization was performed using 5 nM of the Alexa 647 mannoside probe and 60 nM of the FimH-CRD. The samples are assayed in a low volume 384 well microtiter plate in a final volume of 20 μl. The final assay buffer conditions are the following, 50 mM Tris-Cl, ph 7.0, 100 mM NaCl, 1 mM EDTA, 5 mM β-mercaptoethanol, 0.05% BSA and 2.5% DMSO. Two assays are performed for FimH, termed assay 1 or assay 2. The assay conditions are the same for both assays except the following: assay 1 has compounds prepared by manual dilution in a serial dilution factor with 12-point dose response while assay 2 has compounds prepared by a robotics system also through a serial dilution factor (12 point dose response) and initially prepared in duplicate in 384 well-Corning polypropylene round bottom plates. The assay 2 plates have compound which is then frozen and must be thawed prior to use. Initially the Alexa 647 probe and the FimH-CRD are added to the assay buffer and then 0.5 μl of test compound (assay 1 or 2) between 0.4 nM to 75 μM final concentration are added (12 point titration with 3-fold serial dilution). Control wells for the Alexa 647 probe are prepared with the same conditions except for the addition of the FimH-CRD protein. Plates are then incubated for 5 hrs at room temperature in the dark and under humid conditions to prevent drying. Plates are read using the SpectraMax Paradigm multi-mode plate reader and the appropriate fluorescent polarization detection cartridge (Alexa-647).
Alexa 647 mannoside probe is prepared using the similar procedure reported for FAM mannoside (Han, Z. et. al., 2010, J. Med. Chem., 53, 4779) and is described in the scheme below.
To a blue colored stirred solution of (2S,3S,4S,5S,6R)-2-(4-aminobutoxy)-6-(hydroxymethyl)tetrahydropyran-3,4,5-triol (2.21 mg, 0.009 mmol) and the (2E)-2-[(2E,4E)-5-[3,3-dimethyl-5-sulfonato-1-(3-sulfonatopropyl)indol-1-ium-2-yl]penta-2,4-dienylidene]-3-[6-(2,5-dioxopyrrolidin-1-yl)oxy-6-oxo-hexyl]-3-methyl-1-(3-sulfonatopropyl)indoline-5-sulfonate (Potassium Ion (3)) (4.9 mg, 0.0044 mmol) in DMF (44 μL) is added Et3N (5.4 mg, 7.0 μL, 0.053 mmol) at RT. The solution is stirred at room temperature over night, concentrated, dissolved in water and purified on 12 g C-18 silica gel cartridge on Isolera system using acetonitrile in water (0 to 40%, 10 CV) and followed by lyophilization to afford Alexa 647 mannoside probe (3.3 mg, 34%) as deep blue solid.
The Kd values of the compounds are determined from dose response curves using twelve concentrations per compound in duplicate. Curves are fitted to data points using Fluorescence Polarization competitive displacement analysis, and Kds are interpolated from the resulting curves using GraphPad Prism software, version […] (GraphPad software Inc., San Diego, Calif., USA).
(In general: Polarisation of emitted light reports the rotation of a fluorescent probe.)
With `CNC(=O)c1ccc(Oc2cccc([C@H]3O[C@H](CO)[C@@H](O)[C@H](O)[C@@H]3O)c2F)cc1` [Compound 198, 4-[2-fluoro-3-[(2R,3S,4R,5S,6R)-3,4,5-trihydroxy-6-(hydroxymethyl)tetrahydropyran-2-yl]phenoxy]-N-methyl-benzamide], the Kd was 10.8 ± 5.2 nM.
`O=C(NCCCOc1cccc(C2O[C@H](CO)[C@@H](O)[C@H](O)[C@@H]2O)c1)c1ccccc1` (stereo partly shown) [Compound 219] had a Kd of 16.3 ± 5.1 nM.
`COC(=O)c1cccc(COc2cccc(C3O[C@H](CO)[C@@H](O)[C@H](O)[C@@H]3O)c2)c1` (stereo partly shown) [Compound 223] showed a Kd of 23.2 ± 1.6 nM.
Then `OC[C@H]1O[C@H](c2cccc(-c3nc4c(F)cc(F)cc4[nH]3)c2)[C@@H](O)[C@@H](O)[C@@H]1O` [Compound 165], with 28.9 ± 11.7 nM.
Then `OC[C@H]1O[C@H](c2cccc(CCCc3ccccc3)c2)[C@@H](O)[C@@H](O)[C@@H]1O` [Compound 99], with 26.4 ± 1.1 nM.
With `COc1cc(-c2nnc(C)o2)ccc1-c1cccc([C@H]2O[C@H](CO)[C@@H](O)[C@H](O)[C@@H]2O)c1` [Compound 128, (2R,3S,4R,5S,6R)-2-(hydroxymethyl)-6-[3-[2-methoxy-4-(5-methyl-1,3,4-oxadiazol-2-yl)phenyl]phenyl]tetrahydropyran-3,4,5-triol] the figure was 74.7 ± 60.4 nM.
For the compound `CNC(=O)c1ccc(Oc2cc(C)cc([C@H]3O[C@H](CO)[C@@H](O)[C@H](O)[C@@H]3O)c2)cc1` [Compound 199, N-methyl-4-[3-methyl-5-[(2R,3S,4R,5S,6R)-3,4,5-trihydroxy-6-(hydroxymethyl)tetrahydropyran-2-yl]phenoxy]benzamide], the affinity, expressed as Kd, was 8.3 ± 2.2 nM.
Then `Cc1cccc(COc2ccc(C3O[C@H](CO)[C@@H](O)[C@H](O)[C@@H]3O)cc2)n1` (stereo partly shown) [Compound 228], with 9.2 ± 0.04 nM; and `OC[C@H]1O[C@H](c2cccc(COc3ccccc3)c2)[C@@H](O)[C@@H](O)[C@@H]1O` [Compound 262, (2R,3S,4R,5S,6R)-2-(hydroxymethyl)-6-[3-(phenoxymethyl)phenyl]tetrahydropyran-3,4,5-triol], with 26.6 ± 11.4 nM.
`COC(=O)c1ccc(CCc2ccc([C@H]3O[C@H](CO)[C@@H](O)[C@H](O)[C@@H]3O)cc2)cc1` [Compound 100, Methyl 4-[2-[4-[(2R,3S,4R,5S,6R)-3,4,5-trihydroxy-6-(hydroxymethyl)tetrahydropyran-2-yl]phenyl]ethyl]benzoate] returned a dissociation constant Kd of 12 ± 3.1 nM.
Then `C#Cc1ccc([C@H]2O[C@H](CO)[C@@H](O)[C@H](O)[C@@H]2O)cc1` [Compound 74, (2R,3S,4R,5S,6R)-2-(4-Ethynylphenyl)-6-(hydroxymethyl)tetrahydropyran-3,4,5-triol], with 26.4 ± 14.3 nM; and `CNC(=O)c1cc(/C=C\c2cccc([C@H]3O[C@H](CO)[C@@H](O)[C@H](O)[C@@H]3O)c2)cc(C(=O)NC)c1` [Compound 135], with 22.3 ± 9.8 nM; and `CNC(=O)c1cccc(-c2ccc(-c3ccc([C@H]4O[C@H](CO)[C@@H](O)[C@H](O)[C@@H]4O)cc3)c(C)c2)c1` [Compound 158, N-methyl-3-[3-methyl-4-[4-[(2R,3S,4R,5S,6R)-3,4,5-trihydroxy-6-(hydroxymethyl)tetrahydropyran-2-yl]phenyl]phenyl]benzamide], with 20.5 ± 4.3 nM.
On to `Cn1ccc(-c2ccc(-c3cccc([C@H]4O[C@H](CO)[C@@H](O)[C@H](O)[C@@H]4O)c3)cc2)n1` [Compound 122, (2R,3S,4R,5S,6R)-2-(hydroxymethyl)-6-[3-[4-(1-methylpyrazol-3-yl)phenyl]phenyl]tetrahydropyran-3,4,5-triol], for which the dissociation constant (Kd) was determined as 27.6 ± 7.4 nM.
With `OC[C@H]1OC(c2ccc(OCc3cccc4cccnc34)cc2)[C@@H](O)[C@@H](O)[C@@H]1O` (stereo partly shown) [Compound 240] the figure was 7.6 ± 0.9 nM; with `OC[C@H]1O[C@H](c2cccc(O)c2F)[C@@H](O)[C@@H](O)[C@@H]1O` [Compound 190, (2R,3S,4R,5S,6R)-2-(2-fluoro-3-hydroxy-phenyl)-6-(hydroxymethyl)tetrahydropyran-3,4,5-triol], 24.1 ± 15.3 nM.
Then `Cc1c(Br)cccc1[C@H]1O[C@H](CO)[C@@H](O)[C@H](O)[C@@H]1O` [Compound 76, (2R,3S,4R,5S,6R)-2-(3-Bromo-2-methyl-phenyl)-6-(hydroxymethyl)tetrahydropyran-3,4,5-triol], with 38.9 ± 13 nM.
With `COCCOCCNC(=O)Cc1nnc(-c2ccc(-c3cccc([C@H]4O[C@H](CO)[C@@H](O)[C@H](O)[C@@H]4O)c3)cc2)o1` [Compound 182, N-(2-(2-methoxyethoxy)ethyl)-2-(5-(3′-((2R,3S,4R,5S,6R)-3,4,5-trihydroxy-6-(hydroxymethyl)tetrahydro-2H-pyran-2-yl)-[1,1′-biphenyl]-4-yl)-1,3,4-oxadiazol-2-yl)acetamide] the figure was 20.2 ± 4.7 nM; with `OC[C@H]1O[C@H](c2cccc(/C=C/c3cc(Cl)cc(Cl)c3)c2)[C@@H](O)[C@@H](O)[C@@H]1O` [Compound 138, (2R,3S,4R,5S,6R)-2-[3-[(E)-2-(3,5-dichlorophenyl)vinyl]phenyl]-6-(hydroxymethyl)tetrahydropyran-3,4,5-triol], 32.9 ± 6.3 nM; with `OC[C@H]1O[C@H](c2cccc(/C=C/c3ccccc3)c2)[C@@H](O)[C@@H](O)[C@@H]1O` [Compound 140, (2R,3S,4R,5S,6R)-2-(hydroxymethyl)-6-[3-[(E)-styryl]phenyl]tetrahydropyran-3,4,5-triol], 15.3 ± 3.5 nM.
`OC[C@H]1OC(c2cccc(OCC3CCO3)c2)[C@@H](O)[C@@H](O)[C@@H]1O` (stereo partly shown) [Compound 210]: the Kd was 24.2 ± 1.3 nM.
With `OC[C@H]1O[C@H](c2cccc(CCCc3cc(Cl)cc(Cl)c3)c2)[C@@H](O)[C@@H](O)[C@@H]1O` [Compound 98, (2R,3S,4R,5S,6R)-2-[3-[3-(3,5-Dichlorophenyl)propyl]phenyl]-6-(hydroxymethyl)tetrahydropyran-3,4,5-triol] the figure was 27.8 ± 2.1 nM; with `CC(C)(C)c1ccc(COc2ccc(C3O[C@H](CO)[C@@H](O)[C@H](O)[C@@H]3O)cc2)cc1` (stereo partly shown) [Compound 241], 10.2 ± 0.8 nM; with `Cc1nnc(-c2ccc(-c3cccc([C@H]4O[C@H](CO)[C@@H](O)[C@H](O)[C@@H]4O)c3)cc2O)o1` [Compound 143, (2R,3S,4R,5S,6R)-2-(hydroxymethyl)-6-[3-[3-hydroxy-4-(5-methyl-1,3,4-oxadiazol-2-yl)phenyl]phenyl]tetrahydropyran-3,4,5-triol], 11.2 ± 1 nM.
Then `CNC(=O)c1ccc(Oc2ccc(OC(F)(F)F)c([C@H]3O[C@H](CO)[C@@H](O)[C@H](O)[C@@H]3O)c2)cc1` [Compound 195, N-methyl-4-[4-(trifluoromethoxy)-3-[(2R,3S,4R,5S,6R)-3,4,5-trihydroxy-6-(hydroxymethyl)tetrahydropyran-2-yl]phenoxy]benzamide], with 178 ± 60.9 nM.
Then `CNC(=O)c1ccc2nc(-c3cccc([C@H]4O[C@H](CO)[C@@H](O)[C@H](O)[C@@H]4O)c3)ccc2c1` [Compound 145, N-Methyl 2-[3-[(2R,3S,4R,5S,6R)-3,4,5-trihydroxy-6-(hydroxymethyl)tetrahydropyran-2-yl]phenyl]quinoline-6-carboxylate], with 22.4 ± 4.7 nM.
For `CNC(=O)c1cccc2[nH]c(-c3cccc([C@H]4O[C@H](CO)[C@@H](O)[C@H](O)[C@@H]4O)c3)nc12` [Compound 173, N-methyl-2-(3-((2R,3S,4R,5S,6R)-3,4,5-trihydroxy-6-(hydroxymethyl)tetrahydro-2H-pyran-2-yl)phenyl)-1H-benzo[d]imidazole-4-carboxamide], binding was characterised by a dissociation constant (Kd) of 54.6 ± 23 nM.
As to `COC(=O)c1cccc(C#Cc2ccc([C@H]3O[C@H](CO)[C@@H](O)[C@H](O)[C@@H]3O)cc2)c1` [Compound 88, Methyl 3-[2-[4-[(2R,3S,4R,5S,6R)-3,4,5-trihydroxy-6-(hydroxymethyl)tetrahydropyran-2-yl]phenyl]ethynyl]benzoate], the Kd worked out at 11.8 ± 7.9 nM.
